For orientation: IC50 means the concentration needed to halve the response being measured.

Molecules are shown by their SMILES. Where a name gives a salt, the structure may show the parent alone.

Chain of cloned human NR1/NR2B ion channels (Q13224 27-1484, other chains not shown): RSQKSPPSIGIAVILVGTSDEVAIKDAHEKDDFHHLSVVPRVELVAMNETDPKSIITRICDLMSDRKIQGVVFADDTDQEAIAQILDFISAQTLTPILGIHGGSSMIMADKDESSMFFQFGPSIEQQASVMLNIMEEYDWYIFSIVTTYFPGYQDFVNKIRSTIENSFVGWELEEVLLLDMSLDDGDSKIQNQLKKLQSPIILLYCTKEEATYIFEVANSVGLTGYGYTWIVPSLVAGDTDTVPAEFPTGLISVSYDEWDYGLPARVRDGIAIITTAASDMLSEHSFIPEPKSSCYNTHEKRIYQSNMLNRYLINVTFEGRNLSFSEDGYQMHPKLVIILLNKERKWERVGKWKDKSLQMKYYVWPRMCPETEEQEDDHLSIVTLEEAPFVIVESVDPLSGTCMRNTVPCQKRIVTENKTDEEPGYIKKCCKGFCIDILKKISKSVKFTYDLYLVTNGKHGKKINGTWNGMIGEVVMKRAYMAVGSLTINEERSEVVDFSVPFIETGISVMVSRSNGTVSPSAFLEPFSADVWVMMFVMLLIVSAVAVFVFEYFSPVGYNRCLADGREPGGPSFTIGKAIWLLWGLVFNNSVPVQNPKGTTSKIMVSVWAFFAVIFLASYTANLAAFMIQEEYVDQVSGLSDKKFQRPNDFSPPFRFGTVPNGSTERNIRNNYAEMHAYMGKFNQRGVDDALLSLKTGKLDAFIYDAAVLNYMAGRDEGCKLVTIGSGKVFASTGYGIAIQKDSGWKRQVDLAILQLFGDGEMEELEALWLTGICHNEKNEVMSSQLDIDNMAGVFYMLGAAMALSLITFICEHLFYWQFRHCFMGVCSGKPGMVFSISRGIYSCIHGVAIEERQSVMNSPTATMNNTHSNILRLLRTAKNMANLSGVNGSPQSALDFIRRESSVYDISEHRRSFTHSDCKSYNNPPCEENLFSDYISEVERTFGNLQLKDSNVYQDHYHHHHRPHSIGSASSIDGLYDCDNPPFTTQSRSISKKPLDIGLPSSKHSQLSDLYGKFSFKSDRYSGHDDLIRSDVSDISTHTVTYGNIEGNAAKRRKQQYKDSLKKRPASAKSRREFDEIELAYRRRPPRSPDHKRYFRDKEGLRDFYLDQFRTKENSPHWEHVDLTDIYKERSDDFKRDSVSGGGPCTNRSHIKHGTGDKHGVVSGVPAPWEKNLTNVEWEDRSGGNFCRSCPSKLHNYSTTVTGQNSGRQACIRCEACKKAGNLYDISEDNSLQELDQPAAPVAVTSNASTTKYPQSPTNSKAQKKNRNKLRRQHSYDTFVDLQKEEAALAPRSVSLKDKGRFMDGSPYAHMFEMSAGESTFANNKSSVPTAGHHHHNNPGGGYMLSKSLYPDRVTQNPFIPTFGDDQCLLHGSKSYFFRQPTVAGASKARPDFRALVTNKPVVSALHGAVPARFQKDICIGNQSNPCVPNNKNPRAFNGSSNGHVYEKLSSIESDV

This assay deals with cloned human NR1/NR2B ion channels (Homo sapiens (Human), UniProt Q05586+Q13224). Description: HNR2BC: effects of test articles on cloned human NR1/NR2B ion channels expressed in mammalian cells (FLIPR calcium flux). Type of assay: cell-based. Conditions: cloned human NR1/NR2B ion channels, Table 5. In a few lines:
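In a stable Tet-On-induced cell line expressing human GluN1/GluN2B, Calcium 5-loaded cells were preincubated 5 min with compound, then stimulated 5 min with glutamate at ~EC80 plus 10 μM glycine, in pH 7.4 HEPES buffer. FLIPR calcium fluorescence was normalized to control wells.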
For `CCc1ccc(-c2cnc3c(F)cn(CC(=O)N4CC(F)C4)c3c2)s1` [Example 398, 2-[6-(5-Ethyl-2-thienyl)-3-fluoro-pyrrolo[3,2-b]pyridin-1-yl]-1-(3-fluoroazetidin-1-yl)ethanone trifluoroacetate salt], the IC50 is 39.8 nM.
On to `O=C(Cn1ccc2ncc(-c3cccs3)cc21)N1CCC1` [Example 399, 1-(Azetidin-1-yl)-2-[6-(2-thienyl)pyrrolo[3,2-b]pyridin-1-yl]ethanone], for which the IC50 is 158 nM.
With `CN(C)C(=O)Cn1ccc2ncc(-c3cccs3)cc21` [Example 400, N,N-Dimethyl-2-[6-(2-thienyl)pyrrolo[3,2-b]pyridin-1-yl]acetamide], the IC50 is 501 nM.
`CCc1ccc(-c2cnc3c(F)cn(CC(=O)N4CCC4)c3c2)s1` [Example 401, 1-(Azetidin-1-yl)-2-[6-(5-ethyl-2-thienyl)-3-fluoro-pyrrolo[3,2-b]pyridin-1-yl]ethanone]: the IC50 is 631 nM.
As to `Cc1ccc(-c2cnc3c(F)cn(CC(=O)N4CC(F)C4)c3c2)s1` [Example 402, 1-(3-Fluoroazetidin-1-yl)-2-[3-fluoro-6-(5-methyl-2-thienyl)pyrrolo[3,2-b]pyridin-1-yl]ethanone trifluoroacetate salt], the IC50 was 251 nM.
As for `O=C(Cn1ccc2ncc(-c3sccc3Cl)cc21)N1CCC1` [Example 403, 1-(Azetidin-1-yl)-2-[6-(3-chloro-2-thienyl)pyrrolo[3,2-b]pyridin-1-yl]ethanone], the figure is 100 nM; as for `Cc1ncc(-c2cnc3ccn(CC(=O)N4CCC4)c3c2)s1` [Example 404, 1-(Azetidin-1-yl)-2-[6-(2-methylthiazol-5-yl)pyrrolo[3,2-b]pyridin-1-yl]ethanone], 31.6 nM; as for `O=C(Cn1ccc2ncc(-c3cncs3)cc21)N1CCC1` [Example 405, 1-(Azetidin-1-yl)-2-(6-thiazol-5-ylpyrrolo[3,2-b]pyridin-1-yl)ethanone], 10000 nM.
Take `Cc1csc(-c2cnc3c(Cl)cn(CC(=O)N4CCC4)c3c2)c1` [Example 407, 1-(Azetidin-1-yl)-2-[3-chloro-6-(4-methyl-2-thienyl)pyrrolo[3,2-b]pyridin-1-yl]ethanone]: the IC50 is 6310 nM.
Regarding `CCc1ccc(-c2cnc3c(Cl)cn(CC(=O)N4CCC4)c3c2)s1` [Example 408, 1-(Azetidin-1-yl)-2-[3-chloro-6-(5-ethyl-2-thienyl)pyrrolo[3,2-b]pyridin-1-yl]ethanone], the IC50 was 39.8 nM.
In the case of `O=C(Cn1cc(Cl)c2ncc(-c3cccs3)cc21)N1CCC1` [Example 409, 1-(Azetidin-1-yl)-2-[3-chloro-6-(2-thienyl)pyrrolo[3,2-b]pyridin-1-yl]ethanone], the IC50 is 200 nM.
As for `Cc1ccc(-c2cnc3c(Cl)cn(CC(=O)N4CCC4)c3c2)s1` [Example 410, 1-(Azetidin-1-yl)-2-[3-chloro-6-(5-methyl-2-thienyl)pyrrolo[3,2-b]pyridin-1-yl]ethanone], the figure is 316 nM; as for `CN(CC(F)(F)F)C(=O)Cn1ccc2ncc(-c3ccc(F)cc3)cc21` [Example 411, 2-[6-(4-Fluorophenyl)pyrrolo[3,2-b]pyridin-1-yl]-N-methyl-N-(2,2,2-trifluoroethyl)acetamide], 25.1 nM.
`Cc1ccc(-c2cnc3c(Cl)cn(CC(=O)N4CC(F)C4)c3c2)s1` [Example 412, 2-[3-Chloro-6-(5-methyl-2-thienyl)pyrrolo[3,2-b]pyridin-1-yl]-1-(3-fluoroazetidin-1-yl)ethanone]: the IC50 is 7940 nM.
Turning to `O=C(Cn1cc(Cl)c2ncc(-c3ccc(Cl)s3)cc21)N1CC(F)C1` [Example 413, 2-[3-Chloro-6-(5-chloro-2-thienyl)pyrrolo[3,2-b]pyridin-1-yl]-1-(3-fluoroazetidin-1-yl)ethanone], the IC50 is 50.1 nM.
In the case of `CN(C)C(=O)Cn1cc(Cl)c2ncc(-c3cc(Cl)cs3)cc21` [Example 414, 2-[3-Chloro-6-(4-chloro-2-thienyl)pyrrolo[3,2-b]pyridin-1-yl]-N,N-dimethyl-acetamide], the IC50 was 39.8 nM.
As for `Cc1cc(-c2cnc3ccn(CC(=O)N(C)CC(F)(F)F)c3c2)ccc1F` [Example 415, 2-[6-(4-Fluoro-3-methyl-phenyl)pyrrolo[3,2-b]pyridin-1-yl]-N-methyl-N-(2,2,2-trifluoroethyl)acetamide], the figure is 63.1 nM.
In the case of `Cc1csc(-c2cnc3c(Cl)cn(CC(=O)N4CC(F)C4)c3c2)c1` [Example 416, 2-[3-Chloro-6-(4-methyl-2-thienyl)pyrrolo[3,2-b]pyridin-1-yl]-1-(3-fluoroazetidin-1-yl)ethanone], the IC50 was 2510 nM.
As for `O=C(Cn1cc(Cl)c2ncc(-c3cccs3)cc21)N1CC(F)C1` [Example 417, 2-[3-Chloro-6-(2-thienyl)pyrrolo[3,2-b]pyridin-1-yl]-1-(3-fluoroazetidin-1-yl)ethanone], the figure is 63.1 nM; as for `O=C(Cn1cc(Cl)c2ncc(-c3cc(Cl)cs3)cc21)N1CC(F)C1` [Example 418, 2-[3-Chloro-6-(4-chloro-2-thienyl)pyrrolo[3,2-b]pyridin-1-yl]-1-(3-fluoroazetidin-1-yl)ethanone], 501 nM; as for `CCN(C)C(=O)Cn1ccc2ncc(-c3ccc(F)cc3)cc21` [Example 419, N-Ethyl-2-[6-(4-fluorophenyl)pyrrolo[3,2-b]pyridin-1-yl]-N-methyl-acetamide], 63.1 nM.
Then `CN(C)C(=O)Cn1cc(Cl)c2ncc(-c3cccs3)cc21` [Example 420, 2-[3-Chloro-6-(2-thienyl)pyrrolo[3,2-b]pyridin-1-yl]-N,N-dimethyl-acetamide], with 631 nM.
As for `CCc1ccc(-c2cnc3c(Cl)cn(CC(=O)N(C)C)c3c2)s1` [Example 421, 2-[3-Chloro-6-(5-ethyl-2-thienyl)pyrrolo[3,2-b]pyridin-1-yl]-N,N-dimethyl-acetamide], the IC50 was 631 nM.
Consider `O=C(Cn1cc(Cl)c2ncc(-c3cc(Cl)cs3)cc21)N1CCC1` [Example 422, 1-(Azetidin-1-yl)-2-[3-chloro-6-(4-chloro-2-thienyl)pyrrolo[3,2-b]pyridin-1-yl]ethanone], for which the IC50 was 200 nM.
Consider `CN(C)C(=O)Cn1cc(Cl)c2ncc(-c3ccc(Cl)s3)cc21` [Example 423, 2-[3-Chloro-6-(5-chloro-2-thienyl)pyrrolo[3,2-b]pyridin-1-yl]-N,N-dimethyl-acetamide], for which the IC50 was 39.8 nM.
In the case of `CCc1ccc(-c2cnc3c(Cl)cn(CC(=O)N4CC(F)C4)c3c2)s1` [Example 424, 2-[3-Chloro-6-(5-ethyl-2-thienyl)pyrrolo[3,2-b]pyridin-1-yl]-1-(3-fluoroazetidin-1-yl)ethanone], the IC50 was 31.6 nM.
Take `CN(C)C(=O)Cn1ccc2ncc(-c3cccc(C(F)(F)F)c3F)cc21` [Example 425, 2-[6-[2-Fluoro-3-(trifluoromethyl)phenyl]pyrrolo[3,2-b]pyridin-1-yl]-N,N-dimethyl-acetamide]: the IC50 is 316 nM.
Consider `Cc1cc(-c2cnc3ccn(CC(=O)N(C)C)c3c2)c(C)s1` [Example 427, 2-[6-(2,5-Dimethyl-3-thienyl)pyrrolo[3,2-b]pyridin-1-yl]-N,N-dimethyl-acetamide], for which the IC50 was 31.6 nM.
As for `Cc1sc(C)c(-c2cnc3ccn(CC(=O)N(C)C)c3c2)c1C` [Example 428, N,N-Dimethyl-2-[6-(2,4,5-trimethyl-3-thienyl)pyrrolo[3,2-b]pyridin-1-yl]acetamide], the IC50 is 100 nM.
As to `CN(C)C(=O)Cn1ccc2ncc(-c3ccc(F)cc3)cc21` [Example 430, 2-[6-(4-Fluorophenyl)pyrrolo[3,2-b]pyridin-1-yl]-N,N-dimethyl-acetamide], the IC50 was 63.1 nM.
For the compound `CN(C)C(=O)Cn1ccc2ncc(-c3ccccc3F)cc21` [Example 431, 2-[6-(2-Fluorophenyl)pyrrolo[3,2-b]pyridin-1-yl]-N,N-dimethyl-acetamide], the half-inhibitory concentration (IC50) was 251 nM.
As for `Cc1cccc(-c2cnc3ccn(CC(=O)N(C)C)c3c2)c1F` [Example 432, 2-[6-(2-Fluoro-3-methyl-phenyl)pyrrolo[3,2-b]pyridin-1-yl]-N,N-dimethyl-acetamide], the figure is 794 nM.
As to `CN(C)C(=O)Cn1ccc2ncc(-c3ccccc3)cc21` [Example 433, N,N-Dimethyl-2-(6-phenylpyrrolo[3,2-b]pyridin-1-yl)acetamide], the IC50 is 25.1 nM.
As to `CN(C)C(=O)Cn1ccc2ncc(-c3ccc(F)c(C(F)(F)F)c3)cc21` [Example 436, 2-[6-[4-Fluoro-3-(trifluoromethyl)phenyl]pyrrolo[3,2-b]pyridin-1-yl]-N,N-dimethyl-acetamide], the IC50 was 79.4 nM.
On to `CN(C)C(=O)Cn1ccc2ncc(-c3ccc(F)c(F)c3F)cc21` [Example 437, N,N-Dimethyl-2-[6-(2,3,4-trifluorophenyl)pyrrolo[3,2-b]pyridin-1-yl]acetamide], for which the IC50 is 316 nM.
On to `CN(C)C(=O)Cn1ccc2ncc(-c3csc(Cl)c3)cc21` [Example 439, 2-[6-(5-Chloro-3-thienyl)pyrrolo[3,2-b]pyridin-1-yl]-N,N-dimethyl-acetamide], for which the IC50 is 50.1 nM.
Then `CN(C)C(=O)Cn1ccc2ncc(-c3cc(Cl)sc3Cl)cc21` [Example 440, 2-[6-(2,5-Dichloro-3-thienyl)pyrrolo[3,2-b]pyridin-1-yl]-N,N-dimethyl-acetamide], with 126 nM.
Consider `Cc1ccc(F)c(-c2cnc3ccn(CC(=O)N(C)C)c3c2)c1F` [Example 444, 2-[6-(2,6-Difluoro-3-methyl-phenyl)pyrrolo[3,2-b]pyridin-1-yl]-N,N-dimethyl-acetamide], for which the IC50 is 631 nM.
Then `Cc1ccc(F)c(-c2cnc3ccn(CC(=O)N(C)C)c3c2)c1` [Example 445, 2-[6-(2-Fluoro-5-methyl-phenyl)pyrrolo[3,2-b]pyridin-1-yl]-N,N-dimethyl-acetamide], with 398 nM.
Turning to `O=C(Cn1ccc2ncc(-c3cccc(C(F)F)c3)cc21)N1CCC1` [Example 446, 1-(Azetidin-1-yl)-2-[6-[3-(difluoromethyl)phenyl]pyrrolo[3,2-b]pyridin-1-yl]ethanone], the IC50 is 100 nM.

The record behind these values is patent publication US10377753B2, “Substituted 4-azaindoles and their use as GluN2B receptor modulators” (Janssen Pharmaceutica NV, priority 2015, dated 2019).
